According to patent US10022453B2 (BAYER PHARMA AKTIENGESELLSCHAFT, priority 2013, dated 2018):

Assays:
[1] = Cell permeability, flux assay using Caco-2 cells; conditions: human, Caco-2
[2] = target: T1, human kinesin spindle protein KSP/Eg5 (Homo sapiens, UniProt P52732); assay: Inhibition of the kinesin spindle protein KSP/Eg5 (ATPase, malachite green); type: biochemical; conditions: 10 nM KSP motor domain, 500 μM ATP, 2 h RT
T1 construct: The motor domain of the human kinesin spindle protein KSP/Eg5; purchased tebu-bio/Cytoskeleton Inc 027EG01-XL
T1 sequence (P52732 18-359 limits assumed): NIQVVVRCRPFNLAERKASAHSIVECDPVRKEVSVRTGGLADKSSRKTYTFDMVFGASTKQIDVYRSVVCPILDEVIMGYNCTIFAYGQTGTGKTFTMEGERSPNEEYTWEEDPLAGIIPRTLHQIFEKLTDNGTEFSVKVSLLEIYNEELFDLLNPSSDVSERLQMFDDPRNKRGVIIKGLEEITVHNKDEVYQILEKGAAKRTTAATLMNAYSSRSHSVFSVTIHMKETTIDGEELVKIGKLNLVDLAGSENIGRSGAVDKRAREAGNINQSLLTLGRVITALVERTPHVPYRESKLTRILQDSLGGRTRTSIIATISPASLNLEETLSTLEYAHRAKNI
How it was run: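 KSP/Eg5 motor domain (10 nM) preincubated 5 min at RT with 50 μg/ml taxol-stabilized bovine or porcine microtubules in 15 mM PIPES pH 6.8, 5 mM MgCl2, 10 mM DTT. IC50 = mean of three experiments.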

[3] = test system: NCI-H292; assay: Cytotoxic effects, MTT assay; type: cell-based; conditions: Homo sapiens, 72 h incubation
Method: The cells are cultivated by a standard method, as indicated in the […] (ATCC) for the respective cell lines.
At the end of the selected incubation time, the MTT reagent is incubated with the cells for 4 h, followed by lysis of the cells overnight by addition of the detergent. […] The proliferation of cells which were not treated with test substance but were otherwise identically treated was defined as the 100% figure.

Row | SMILES | Papp B→A at 2 h [1] [×10⁻⁶ cm/s] | efflux ratio at 2 h [1] | IC50 [2] [nM] | IC50 [3] [nM]
1 | CC(C)(C)[C@H](c1nn(-c2cc(F)ccc2F)cc1Cc1ccccc1)N(CC[C@H](N)C(=O)NNC(=O)CCCCCN1C(=O)CC(SC[C@H](N)C(=O)O)C1=O)C(=O)CO.O=C(O)C(F)(F)F (stereo partly drawn) [Example 137, S-{1-[6-(2-{(2S)-2-Amino-4-[{(1R)-1-[4-benzyl-1-(2,5-difluorophenyl)-1H-pyrazol-3-yl]-2,2-dimethylpropyl}(glycoloyl)amino]butanoyl}hydrazino)-6-oxohexyl]-2,5-dioxopyrrolidin-3-yl}-L-cysteine/trifluoroacetic acid (1:1)] | 1.7 | 19 | 0.778 | ≥ 500
2 | CC(C)(C)[C@H](c1cc(-c2cc(F)ccc2F)cn1Cc1ccccc1)N(CC[C@H](N)C(=O)NCCN1C(=O)CC(SC[C@H](N)C(=O)O)C1=O)C(=O)CO.O=C(O)C(F)(F)F.O=C(O)C(F)(F)F (stereo partly drawn) [Example 139, S-{(3R/S)-1-[2-({(2S)-2-amino-4-[{(1R)-1-[1-benzyl-4-(2,5-difluorophenyl)-1H-pyrrol-2-yl]-2,2-dimethylpropyl}(glycoloyl)amino]butanoyl}amino)ethyl]-2,5-dioxopyrrolidin-3-yl}-L-cysteine/trifluoroacetic acid (1:2)] | 2.1 | 7.7 | 1.82 | 134
3 | CC(C)(C)[C@H](c1cc(-c2cc(F)ccc2F)cn1Cc1ccccc1)N(CCCN)C(=O)CSCCCCCC(=O)NCCN1C(=O)CC(SC[C@H](N)C(=O)O)C1=O.O=C(O)C(F)(F)F.O=C(O)C(F)(F)F (stereo partly drawn) [Example 141, S-[(3R/S)-1-(2-{[6-({2-[(3-aminopropyl) {(1R)-1-[1-benzyl-4-(2,5-difluorophenyl)-1H-pyrrol-2-yl]-2,2-dimethylpropyl}amino]-2-oxoethyl}sulphanyl)hexanoyl]amino}ethyl)-2,5-dioxopyrrolidin-3-yl]-L-cysteine/trifluoroacetic acid (1:2)] | 3 | 35 | 0.902 | 16.1
4 | CC(C)(C)[C@H](c1cc(-c2cc(F)ccc2F)cn1Cc1ccccc1)N(CC[C@H](N)C(=O)N[C@H]1CC[C@@H](C(=O)NCCN2C(=O)CC(SC[C@H](N)C(=O)O)C2=O)C1)C(=O)CO.O=C(O)C(F)(F)F (stereo partly drawn) [Example 157, S-{1-[2-({[(1R,3S)-3-({(2S)-2-Amino-4-[{(1R)-1-[1-benzyl-4-(2,5-difluorophenyl)-1H-pyrrol-2-yl]-2,2-dimethylpropyl}(glycoloyl)amino]butanoyl}amino)cyclopentyl]carbonyl}amino)ethyl]-2,5-dioxopyrrolidin-3-yl}-L-cysteine/trifluoroacetic acid (1:1)] | 0.77 | 7.2 | 9.61 | ≥ 500
5 | C[C@@H](NC(=O)[C@@H](N)CCN(C(=O)CO)[C@@H](c1nc(-c2cc(F)ccc2F)cn1Cc1ccccc1)C(C)(C)C)C(=O)NCCCC[C@H](N)C(=O)O.O=C(O)C(F)(F)F [Example 159, N^6-(N-{(2S)-2-Amino-4-[{(1R)-1-[1-benzyl-4-(2,5-difluorophenyl)-1H-imidazol-2-yl]-2,2-dimethylpropyl}(glycoloyl)amino]butanoyl}-D-alanyl)-L-lysine/trifluoroacetic acid (1:1)] | 0.7 | 6.1 | 0.311 | 114
6 | CC(C)[C@H](NC(=O)CCCCCN1C(=O)CC(SC[C@H](N)C(=O)O)C1=O)C(=O)N[C@@H](C)C(=O)N[C@@H](CCCCNC(=O)CCNC(=O)[C@@H](N)CCN(C(=O)CO)[C@@H](c1cc(-c2cc(F)ccc2F)cn1Cc1ccccc1)C(C)(C)C)C(=O)O (stereo partly drawn) [Example 160, N^6-(N-{(2S)-2-Amino-4-[{(1R)-1-[1-benzyl-4-(2,5-difluorophenyl)-1H-pyrrol-2-yl]-2,2-dimethylpropyl}(glycoloyl)amino]butanoyl}-beta-alanyl)-N^2-N-{[6-(3-{[(2R)-2-amino-2-carboxyethyl]sulfanyl}-2,5-dioxopyrrolidin-1-yl)hexanoyl]-L-valyl-L-alanyl}-L-lysine/trifluoroacetic acid (1:1)] | 0.16 | 1 | 0.681 | ≥ 500
7 | CC(C)(C)[C@H](c1cc(-c2cc(F)ccc2F)cn1Cc1ccccc1)N(CC[C@H](N)C(=O)NCCN)C(=O)CO.O=C(O)C(F)(F)F [Example 198] | 51.9 | 34 | 10.7 | 19.5
8 | CC(C)(C)[C@H](c1cc(-c2cc(F)ccc2F)cn1Cc1ccccc1)N(CCCN)C(=O)CSC[C@H](NC(=O)CCOCCOCCOCCOCCNC(=O)CCN1C(=O)CC(SC[C@H](N)C(=O)O)C1=O)C(=O)O.O=C(O)C(F)(F)F.O=C(O)C(F)(F)F (stereo partly drawn) [Example 226, (2R)-22-[(3R/S)-3-{[(2R)-2-Amino-2-carboxyethyl]sulphanyl}-2,5-dioxopyrrolidin-1-yl]-2-[({2-[(3-aminopropyl){(1R)-1-[1-benzyl-4-(2,5-difluorophenyl)-1H-pyrrol-2-yl]-2,2-dimethylpropyl}amino]-2-oxoethyl}sulphanyl)methyl]-4,20-dioxo-7,10,13,16-tetraoxa-3,19-diazadocosan-1-oic acid/trifluoroacetic (1:2)] | 0.3 | 0.2 | 1.49 | 222
9 | CC(C)(C)[C@H](c1cc(-c2cc(F)ccc2F)cn1Cc1ccccc1)N(CCCN)C(=O)CSCCC(N)C(=O)O.O=C(O)C(F)(F)F.O=C(O)C(F)(F)F (stereo partly drawn) [Example 232, S-{2-[(3-Aminopropyl){(1R)-1-[1-benzyl-4-(2,5-difluorophenyl)-1H-pyrrol-2-yl]-2,2-dimethylpropyl}amino]-2-oxoethyl}homocysteine/trifluoroacetic acid (1:2)] | 4.9 | 14 | 2.2 | 15.5
